Measured values: patent US7312358B2, “Pharmaceutically active sulfanilide derivatives” (Laboratoires Serono SA, priority 2000, dated 2007)

How the values were obtained:
hOT receptor = molecular target: T1, hOT receptor (Homo sapiens, UniProt P30559); assay: In vitro competition binding assay on hOT receptor with scintillating proximity assay; details: membranes from HEK293EBNA cells expressing hOT receptor; radiolabel [125I]-OVTA; SPA; read-out: Binding Affinity Human OT-R Ki
T1 construct: expressed in transfected cells; host or cells: HEK293EBNA cells (membranes)
T1 sequence (P30559 1-389): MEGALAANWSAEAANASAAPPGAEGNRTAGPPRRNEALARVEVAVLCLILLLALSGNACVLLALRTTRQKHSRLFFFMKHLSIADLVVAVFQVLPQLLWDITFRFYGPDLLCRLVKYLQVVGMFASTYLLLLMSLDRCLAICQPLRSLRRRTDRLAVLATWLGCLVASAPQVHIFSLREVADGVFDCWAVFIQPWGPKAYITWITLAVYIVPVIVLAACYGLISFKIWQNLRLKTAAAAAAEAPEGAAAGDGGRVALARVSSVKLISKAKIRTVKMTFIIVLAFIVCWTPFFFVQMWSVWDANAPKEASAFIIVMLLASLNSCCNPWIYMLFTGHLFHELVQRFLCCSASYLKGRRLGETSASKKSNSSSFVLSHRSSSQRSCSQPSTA
Protocol: a) In Vitro Competition Binding Assay on hOT Receptor with Scintillating Proximity Assay (Pharmaceutical Manufacturing International, 1992, p. 49-53 by Cook, N. D. et al)
This assays allows to determine the affinity of the test compounds for the OT receptor. Membranes from HEK293EBNA cells expressing the hOT receptor were resuspended in buffer containing 50 mM Tris-HCl, pH 7.4, 5 mM MgCl2 and 0.1% BSA (w/v). The membranes (2-4 μg) were mixed with 0.1 mg wheat-germ aglutinin (WGA) SPA bead (type A) and 0.2 nM of the radiolabel [^125I]-OVTA (OVTA being […] and is an analogue of OT for competition binding experiments). Non-specific binding was determined in the presence of 1 μM Oxytocin. The total assay volume was 100 μl. The plates (Corning (D NBS plate) were incubated at room temperature for 30 min and counted on a Mibrobeta plate counter. The tests compounds were used in concentrations of 30 μM, 10 μM, 1 μM, 300 nM, 100 nM, 10 nM, 1 nM, 100 pM, 10 pM. The competition binding data were analysed using the iterative, nonlinear, curve-fitting program, “Prism”.
The binding affinities to the oxytocin receptor of the sulfanilide derivatives claimed in the formula I were assessed using the above described in vitro biological assay. The values refer to the binding affinity (IC50; μM) of the example compounds according to formula I to the Oxytocin receptor. From the values shown in Table 1 it can be derived that said test compounds according to formula I do show a significant binding to the oxytocin receptor.

| Compound | Ki (hOT receptor) [nM] | melting point |
| --- | --- | --- |
| O=C(CN(c1ccc(Br)cc1)S(=O)(=O)c1ccccc1)Nc1cccc2cccnc12 [2-[Benzenesulfonyl-(4-bromo-phenyl)-amino]-N-quinolin-8-yl-acetamide] | 192 |  |
| Cc1ccc(N(CC(=O)N/N=C2/C(=O)Nc3ccccc32)S(=O)(=O)c2cccc3ccccc23)cc1 [Example 6, N-(4-methylphenyl)-N-{2-oxo-2-[2-(2-oxo-1,2-dihydro-3H-indol-3-ylidene)hydrazino]ethyl}-1-naphthalenesulfonamide] |  | 138 to 139 °C |
| CCOc1ccc(S(=O)(=O)N(CC(=O)N/N=C\c2ccccc2F)c2ccc(C)cc2)cc1 [Example 12, 4-ethoxy-N-{2-[2-(2-fluorobenzylidene)hydrazino]-2-oxoethyl}-N-(4-methylphenyl)benzenesulfonamide] |  | 183 to 184 °C |
| Cc1ccc(N(CC(=O)N/N=C2/C(=O)Nc3ccccc32)S(=O)(=O)c2ccc(-c3ccccc3)cc2)cc1 [Example 13, N-(4-methylphenyl)-N-{2-oxo-2-[2-(2-oxo-1.2-dihydro-3H-indol-3-ylidene)hydrazino]ethyl}[1,1′-biphenyl]-4-sulfonamide] |  | 246 to 247 °C |
| CCOc1ccc(S(=O)(=O)N(CC(=O)N/N=C\c2ccc(N(CC)CC)cc2O)c2ccc(C)cc2)cc1 [Example 16, N-(2-{2-[4-(diethylamino)-2-hydroxybenzylidene]hydrazino}-2-oxoethyl)-4-ethoxy-N-(4-methylphenyl)benzenesulfonamide] |  | 227 to 228 °C |
| O=C(CN(c1ccc(Cl)cc1)S(=O)(=O)c1cccs1)N/N=C1\C(=O)Nc2ccccc21 [Example 36, N-(4-chlorophenyl)-N-{2-oxo-2-[(2Z)-2-(2-oxo-1,2-dihydro-3H-indol-3-ylidene)hydrazino]ethyl}-2-thiophenesulfonamide] | 29.3 |  |
| O=C(CN(c1ccc(Cl)cc1)S(=O)(=O)c1ccc(OCc2cccs2)cc1)N/N=C1\C(=O)Nc2ccccc21 [Example 60, N-(4-chlorophenyl)-N-{2-oxo-2-[(2Z)-2-(2-oxo-1,2-dihydro-3H-indol-3-ylidene)hydrazino]ethyl}-4-(2-thienylmethoxy)benzenesulfonamide] | 53.3 |  |
| CN(C)CCCOc1ccc(S(=O)(=O)N(CC(=O)N/N=C2\C(=O)Nc3ccncc32)c2ccc(Cl)cc2)cc1 [Example 68, N-(4-chlorophenyl)-4-[3-(dimethylamino)propoxy]-N-{2-oxo-2-[(2Z)-2-(2-oxo-1,2-dihydro-3H-pyrrolo[3,2-c]pyridin-3-ylidene)hydrazino]ethyl}benzenesulfonamide] | 78.1 |  |
| COc1ccc(N(CC(=O)N2Cc3ccccc3CC2CC(N)=O)S(=O)(=O)c2ccc(OC)c(OC)c2)cc1 (centres unmarked) [Example 82, 2-[2-({[(3,4-Dimethoxyphenyl)sulfonyl]-4-methoxyanilino}acetyl)-1,2,3,4-tetrahydro-3-isoquinolinyl]acetamide] | 465 |  |
| CCOc1ccc(S(=O)(=O)N(CC(=O)N2Cc3ccccc3CC2CC(N)=O)c2ccc(C)cc2)cc1 (centres unmarked) [Example 89, 2-[2-({[(4-Ethoxyphenyl)sulfonyl]-4-methylanilino}acetyl)-1,2,3,4-tetrahydro-3-isoguinolinyl]acetamide] | 498 |  |
| CCOc1ccc(S(=O)(=O)N(CC(=O)N2Cc3ccccc3CC2C(N)=O)c2ccc(OC)cc2)cc1 (centres unmarked) [Example 91, 2-({[(4-Ethoxyphenyl)sulfonyl]-4-methoxyanilino}acetyl)-1.2,3,4-tetrahydro-3-isoquinolinecarboxamide] | 316 |  |
| Cc1ccc(N(CC(=O)N2CCc3ccccc3C2)S(=O)(=O)c2ccccc2)cc1 [N-[2-(3,4-Dihydro-1H-isoquinolin-2-yl)-2-oxo-ethyl]-N-p-tolyl-benzenesulfonamide] | 472 |  |
| N-(4-chlorophenyl)-4-ethoxy-N-{2-[(2E)-2-(2-hydroxybenzylidene)hydrazino]-2-oxoethyl}benzenesulfonamide [Example 38] | 14.8 |  |

Next, values leading:

| Ki (hOT receptor) [nM] | melting point | Compound |
| --- | --- | --- |
|  | 318 to 319 °C (dec.) | CCOc1ccc(S(=O)(=O)N(CC(=O)N/N=C2/C(=O)Nc3ccc(S(=O)(=O)O)cc32)c2ccc(C)cc2)cc1 [Example 1, 3-[({[(4-ethoxyphenyl)sulfonyl]-4-methylanilino}acetyl)hydrazono]-2-oxo-2,3-dihydro-H-indole-5-sulfonic Acid] |
|  | 135.5 to 136.5 °C | CCOc1ccc(S(=O)(=O)N(CC(=O)N/N=C2/C(=O)Nc3ccccc32)c2ccccc2)cc1 [Example 2, 4-ethoxy-N-{2-oxo-2-[2-(2-oxo-1,2-dihydro-3H-indol-3-ylidene)hydrazino]-ethyl}-N-phenylbenzenesulfonamide] |
|  | 252 to 253 °C | CCOc1ccc(S(=O)(=O)N(CC(=O)N/N=C2/C(=O)Nc3ccc([N+](=O)[O-])cc32)c2ccccc2)cc1 [Example 3, 4-ethoxy-N-{2-[2-(5-nitro-2-oxo-1,2-dihydro-3H-indol-3-ylidene)hydrazino]-2-oxoethyl}-N-phenylbenzenesulfonamide] |
|  | 233 to 234 °C | CCOc1ccc(S(=O)(=O)N(CC(=O)N/N=C2/C(=O)Nc3ccc(I)cc32)c2ccccc2)cc1 [Example 4, 4-ethoxy-N-{2-[2-(5-iodo-2-oxo-1,2-dihydro-3H-indol-3-ylidene)hydrazino]-2-oxoethyl}-N-phenylbenzenesulfonamide] |
|  | 234 to 235 °C | Cc1ccc(N(CC(=O)N/N=C2/C(=O)Nc3ccccc32)S(=O)(=O)c2ccc(Cl)cc2)cc1 [Example 8, 4-chloro-N-(4-methylphenyl)-N-{2-oxo-2-[2-(2-oxo-1,2-dihydro-3H-indol-3-ylidene)hydrazino]ethyl}benzenesulfonamide] |
|  | 134 to 135 °C | COc1ccc(S(=O)(=O)N(CC(=O)N/N=C2/C(=O)Nc3ccccc32)c2ccc(C)cc2)cc1 [Example 9, 4-methoxy-N-(4-methylphenyl)-N-{2-oxo-2-[2-(2-oxo-1,2-dihydro-3H-indol-3-ylidene)hydrazino]ethyl}benzenesulfonamide] |
|  | 243 to 244 °C | Cc1ccc(N(CC(=O)N/N=C2/C(=O)Nc3ccccc32)S(=O)(=O)c2ccc(C)cc2)cc1 [Example 10, 4-methyl-N-(4-methylphenyl)-N-{2-oxo-2-[2-(2-oxo-1,2-dihydro-3H-indol-3-ylidene)hydrazino]ethyl}benzenesulfonamide] |
|  | 245 to 246 °C | Cc1ccc(N(CC(=O)N/N=C2/C(=O)Nc3ccccc32)S(=O)(=O)c2ccc(Oc3ccccc3)cc2)cc1 [Example 14, N-(4-methylphenyl)-N-{2-oxo-2-[2-(2-oxo-1,2-dihydro-3H-indol-3-ylidene)hydrazino]ethyl}-4-phenoxybenzenesulfonamide] |
| 1.2 |  | CCOc1ccc(S(=O)(=O)N(CC(=O)N/N=C\c2ccccc2O)c2ccc(C)cc2)cc1 [Example 15, 4-ethoxy-N-{2-[2-(2-hydroxybenzylidene)hydrazino]-2-oxoethyl}-N-(4-methylphenyl)benzenesulfonamide] |
|  | 235 to 236 °C | COc1ccc(-c2ccc(S(=O)(=O)N(CC(=O)N/N=C3\C(=O)Nc4ccccc43)c3ccc(C)cc3)cc2)cc1 [Example 19, 4′-methoxy-N-(4-methylphenyl)-N-{2-oxo-2-[2-(2-oxo-1,2-dihydro-3H-indol-3-ylidene)hydrazino]ethyl}[1,1′-biphenyl]-4-sulfonamide] |
| 57.1 |  | CCOc1ccc(S(=O)(=O)N(CC(=O)N/N=C2\C(=O)Nc3ccncc32)c2ccc(Cl)cc2)cc1 [Example 50, N-(4-chlorophenyl)-4-ethoxy-N-{2-oxo-2-[(2Z)-2-(2-oxo-1,2-dihydro-3H-pyrrolo[3,2-c]pyridin-3-ylidene)hydrazino]ethyl}benzenesulfonamide] |
| 1.8 |  | CN(C)CCOc1ccc(S(=O)(=O)N(CC(=O)N/N=C2\C(=O)Nc3ccccc32)c2ccc(Cl)cc2)cc1 [Example 57, N-(4-chlorophenyl)-4-[2-(dimethylamino)ethoxy]-N-{2-oxo-2-[(2Z)-2-(2-oxo-1.2-dihydro-3H-indol-3-ylidene)hydrazino]ethyl}benzenesulfonamide] |
| 0.3 |  | Cc1ccc(N(CC(=O)N/N=C2\C(=O)Nc3ccccc32)S(=O)(=O)c2ccc(OCCCN(C)C)cc2)cc1 [Example 59, 4-[3-(Dimethylamino)propoxy]-N-(4-methylphenyl)-N-{2-oxo-2-[(2Z)-2-(2-oxo-1,2-dihydro-3H-indol-3-ylidene)hydrazino]ethyl}benzenesulfonamide] |
